Experimental data: ChEMBL document CHEMBL1124314, “Development of phosphonate derivatives of gadolinium chelates for NMR imaging of calcified soft tissues” (J Med Chem, 1989)

Key:
Rattus norvegicus [1] = organism: Rattus norvegicus; experiment: Biodistribution in normal rat kidney in the presence of NAC Gd 0.01 M lig at 2 hr; assay type: ADME, organism-based; settings: in vivo
[2] = Ratio of uptake of [GD] in bone 1 hr post injection with 0.002 to that of blood; assay type: functional
Rattus norvegicus [3] = organism: Rattus norvegicus; experiment: Biodistribution in normal rat lung in the presence of NAC Gd 0.01 M lig at 2 hr; assay type: ADME, organism-based; settings: in vivo
Rattus norvegicus [4] = organism: Rattus norvegicus; experiment: Uptake of [GD] in bone 1 h post injection with 0.01 of the compound; assay type: functional, Bone element
Rattus norvegicus [5] = organism: Rattus norvegicus; experiment: Biodistribution in normal rat spleen in the presence of 0.005 M Gd/0.01 M lig at 2 hr; assay type: ADME, organism-based; settings: in vivo
[6] = Ratio of uptake of [GD] in bone 1 hr post injection with 0.002 to that of muscle; assay type: functional
Rattus norvegicus [7] = organism: Rattus norvegicus; experiment: Biodistribution in normal rat bone in the presence of NAC Gd 0.01 M lig at 2 hr; assay type: ADME, organism-based, Bone element; settings: in vivo
Rattus norvegicus [8] = organism: Rattus norvegicus; experiment: Biodistribution in normal rat spleen in the presence of NAC Gd 0.01 M lig at 2 hr; assay type: ADME, organism-based; settings: in vivo
Rattus norvegicus [9] = organism: Rattus norvegicus; experiment: Uptake of [GD] in bone 1 hr post injection with 0.002 of the compound; assay type: functional, Bone element
Rattus norvegicus [10] = organism: Rattus norvegicus; experiment: Biodistribution in normal rat heart in the presence of 0.01 M Gd/0.05 M lig; assay type: ADME, organism-based; settings: in vivo
[11] = Ratio of uptake of [GD] in bone 1 hr post injection with 0.01 to that of muscle; assay type: functional
Rattus norvegicus [12] = organism: Rattus norvegicus; experiment: Biodistribution in normal rat bone in the presence of 0.005 M Gd/0.01 M lig at 2 hr; assay type: ADME, organism-based, Bone element; settings: in vivo
Rattus norvegicus [13] = organism: Rattus norvegicus; experiment: Biodistribution in normal rat blood in the presence of 0.01 M Gd/0.05 M lig; assay type: ADME, organism-based; settings: in vivo
Rattus norvegicus [14] = organism: Rattus norvegicus; experiment: Biodistribution in normal rat kidney in the presence of 0.005 M Gd/0.01 M lig at 2 hr; assay type: ADME, organism-based; settings: in vivo
Rattus norvegicus [15] = organism: Rattus norvegicus; experiment: Biodistribution in normal rat muscle in the presence of NAC Gd 0.01 M lig at 2 hr; assay type: ADME, organism-based, Muscle tissue; settings: in vivo
Rattus norvegicus [16] = organism: Rattus norvegicus; experiment: Biodistribution in normal rat spleen in the presence of 0.01 M Gd/0.05 M lig; assay type: ADME, organism-based; settings: in vivo
Rattus norvegicus [17] = organism: Rattus norvegicus; experiment: Biodistribution in normal rat muscle in the presence of 0.005 M Gd/0.01 M lig at 2 hr; assay type: ADME, organism-based, Muscle tissue; settings: in vivo
Rattus norvegicus [18] = organism: Rattus norvegicus; experiment: Uptake of [GD] in bone 1 hr post injection with NCA GD dose; assay type: functional, Bone element
[19] = Ratio of uptake of [GD] in bone 1 hr post injection with 0.025 to that of blood; assay type: functional
Rattus norvegicus [20] = organism: Rattus norvegicus; experiment: Biodistribution in normal rat blood in the presence of 0.005 M Gd/0.01 M lig at 2 hr; assay type: ADME, organism-based; settings: in vivo
Rattus norvegicus [21] = organism: Rattus norvegicus; experiment: Uptake of [GD] in bone 1 hr post injection with 0.025 of the compound; assay type: functional, Bone element
Rattus norvegicus [22] = organism: Rattus norvegicus; experiment: Biodistribution in normal rat muscle in the presence of 0.01 M Gd/0.05 M lig; assay type: ADME, organism-based, Muscle tissue; settings: in vivo
Rattus norvegicus [23] = organism: Rattus norvegicus; experiment: Biodistribution in normal rat bone in the presence of 0.01 M Gd/0.05 M lig; assay type: ADME, organism-based, Bone element; settings: in vivo
Rattus norvegicus [24] = organism: Rattus norvegicus; experiment: Biodistribution in normal rat heart in the presence of 0.005 M Gd/0.01 M lig at 2 hr; assay type: ADME, organism-based; settings: in vivo
Rattus norvegicus [25] = organism: Rattus norvegicus; experiment: Biodistribution in normal rat heart in the presence of NAC Gd 0.01 M lig at 2 hr; assay type: ADME, organism-based; settings: in vivo
[26] = Uptake of [GD] in bone 1 hr post injection with NCA GD dose to that of muscle; assay type: functional, Muscle tissue
Rattus norvegicus [27] = organism: Rattus norvegicus; experiment: Biodistribution in normal rat lung in the presence of 0.005 M Gd/0.01 M lig at 2 hr; assay type: ADME, organism-based; settings: in vivo
Rattus norvegicus [28] = organism: Rattus norvegicus; experiment: Biodistribution in normal rat liver in the presence of NAC Gd 0.01 M lig at 2 hr; assay type: ADME, organism-based; settings: in vivo
[29] = Ratio of uptake of [GD] in bone 1 hr post injection with NCA GD dose to that of blood; assay type: functional
[30] = Ratio of uptake of [GD] in bone 1 hr post injection with 0.025 to that of muscle; assay type: functional
Rattus norvegicus [31] = organism: Rattus norvegicus; experiment: Biodistribution in normal rat liver in the presence of 0.01 M Gd/0.05 M lig; assay type: ADME, organism-based; settings: in vivo
[32] = Ratio of uptake of [GD] in bone 1 hr post injection with 0.01 to that of blood; assay type: functional
Rattus norvegicus [33] = organism: Rattus norvegicus; experiment: Biodistribution in normal rat lung in the presence of 0.01 M Gd/0.05 M lig; assay type: ADME, organism-based; settings: in vivo
Rattus norvegicus [34] = organism: Rattus norvegicus; experiment: Biodistribution in normal rat liver in the presence of 0.005 M Gd/0.01 M lig at 2 hr; assay type: ADME, organism-based; settings: in vivo
Rattus norvegicus [35] = organism: Rattus norvegicus; experiment: Biodistribution in normal rat blood in the presence of NAC Gd 0.01 M lig at 2 hr; assay type: ADME, organism-based; settings: in vivo
Rattus norvegicus [36] = organism: Rattus norvegicus; experiment: Biodistribution in normal rat kidney in the presence of 0.01 M Gd/0.05 M lig; assay type: ADME, organism-based; settings: in vivo

Question: What does the source list for `O=P(O)(O)C(N(CCN(C(P(=O)(O)O)P(=O)(O)O)C(P(=O)(O)O)P(=O)(O)O)C(P(=O)(O)O)P(=O)(O)O)P(=O)(O)O`?
Answer: ID/organ (Rattus norvegicus [1]): 0.29%; Ratio [2]: 73.3; ID/organ (Rattus norvegicus [3]): 0.02%; ID (Rattus norvegicus [4]): 50.1%; ID/organ (Rattus norvegicus [5]): 0.02%; Ratio [6]: 43.5; ID/organ (Rattus norvegicus [7]): 47%; ID/organ (Rattus norvegicus [8]): 0.004%; ID (Rattus norvegicus [9]): 53.1%; ID/organ (Rattus norvegicus [10]): 0.13%; Ratio [11]: 27.7; ID/organ (Rattus norvegicus [12]): 42.9%; ID/organ (Rattus norvegicus [13]): 0.7%; ID/organ (Rattus norvegicus [14]): 0.4%; ID/organ (Rattus norvegicus [15]): 0.3%; ID/organ (Rattus norvegicus [16]): 0.009%; ID/organ (Rattus norvegicus [17]): 2.4%; ID (Rattus norvegicus [18]): 54.8%; Ratio [19]: 20.4; ID/organ (Rattus norvegicus [20]): 1.7%; ID (Rattus norvegicus [21]): 35.4%; ID/organ (Rattus norvegicus [22]): 2%; ID/organ (Rattus norvegicus [23]): 35%; ID/organ (Rattus norvegicus [24]): 0.04%; ID/organ (Rattus norvegicus [25]): 0.004%; Ratio [26]: 51.2; ID/organ (Rattus norvegicus [27]): 0.1%; ID/organ (Rattus norvegicus [28]): 0.22%; Ratio [29]: 91.8; Ratio [30]: 12.4; ID/organ (Rattus norvegicus [31]): 0.5%; Ratio [32]: 37.3; ID/organ (Rattus norvegicus [33]): 0.09%; ID/organ (Rattus norvegicus [34]): 1.6%; ID/organ (Rattus norvegicus [35]): 0.045%; ID/organ (Rattus norvegicus [36]): 0.38%
